{
  "source": "paper PMC11203266",
  "about": "“Continuous evolution of compact protein degradation tags regulated by selective molecular glues” (Science (New York, N.Y.), 2024)",
  "key": {"[1]": {"test_system": "Ba/F3 cells", "assay": "Global quantitative proteomics, Ba/F3", "type": "cell-based, mouse", "settings": "1 µM; for changes to protein expression (in words): pomalidomide 5 hrs, PT-179 5 and 24 hrs", "method": "Cells were lysed by addition of lysis buffer (8 M Urea, 50 mM NaCl, 50 mM 4-(2-hydroxyethyl)-1-piperazineethanesulfonic acid (EPPS) pH 8.5, Protease and Phosphatase inhibitors) and homogenization by bead beating (BioSpec) for three repeats of 30 seconds at 2400. Bradford assay was used to determine the final protein concentration in the clarified cell lysate. 50 μg of protein for each sample was reduced, alkylated and precipitated using methanol/chloroform as previously described ([32]) and the resulting washed precipitated protein was allowed to air dry. Precipitated protein was resuspended in 4 M Urea, 50 mM HEPES pH 7.4, followed by dilution to <1 M urea with the addition of 200 mM EPPS, pH 8. Proteins were digested with LysC (1:50; enzyme:protein) and trypsin (1:50; enzyme:protein) overnight at 37 °C. Sample digests were acidified with formic acid to a pH of 2-3 prior to desalting using C18 solid phase extraction plates (SOLA, Thermo Fisher Scientific). Desalted peptides were dried in a vacuum centrifuge and reconstituted in 0.1% formic acid for LC-MS analysis.\nData were collected using a TimsTOF Pro2 (Bruker Daltonics, Bremen, Germany) coupled to a nanoElute LC pump (Bruker Daltonics, Bremen, Germany) via a CaptiveSpray nano-electrospray source. Peptides were separated on a reversed-phase C18 column (25 cm x 75 μm ID, […], IonOpticks, Australia) containing an integrated captive spray emitter. Peptides were separated using a 50 min gradient of 2 – 30% buffer B (acetonitrile in 0.1% formic acid) with a flow rate of 250 nL/min and column temperature maintained at 50 °C.\nDDA was performed in Parallel Accumulation-Serial Fragmentation (PASEF) mode to determine effective ion mobility windows for downstream diaPASEF data collection (Meier et al., 2020). The ddaPASEF parameters included: 100% duty cycle using accumulation and ramp times of 50 ms each, 1 TIMS-MS scan and 10 PASEF ramps per acquisition cycle. The TIMS-MS survey scan was acquired between 100–1700 m/z and 1/k0 of 0.7–1.3 V.s/cm^2. Precursors with 1–5 charges were selected and those that reached an intensity threshold of 20,000 arbitrary units were actively excluded for 0.4 min. The quadrupole isolation width was set to 2 m/z for m/z <700 and 3 m/z for m/z >800, with the m/z between 700–800 m/z being interpolated linearly. The TIMS elution voltages were calibrated linearly with three points (Agilent ESI-L Tuning Mix Ions; 622, 922, 1,222 m/z) to determine the reduced ion mobility coefficients (1/K0). To perform diaPASEF, the precursor distribution in the DDA m/z-ion mobility plane was used to design an acquisition scheme for DIA data collection which included two windows in each 50 ms diaPASEF scan. Data was acquired using sixteen of these 25 Da precursor double window scans (creating 32 windows) which covered the diagonal scan line for doubly and triply charged precursors, with singly charged precursors able to be excluded by their position in the m/z-ion mobility plane. These precursor isolation windows were defined between 400–1200 m/z and 1/k0 of 0.7–1.3 V.s/cm^2.\nThe diaPASEF raw file processing and controlling peptide and protein level false discovery rates, assembling proteins from peptides, and protein quantification from peptides was performed using either targeted, cell line specific spectral libraries generated by searching offline fractionated DDApasef data against a Swissprot human or mouse database (January 2021) or using library free analysis in DIA-NN 1.8 ([85]). Library free mode performs an in-silico digestion of a given protein sequence database alongside deep learning-based predictions to extract the DIA precursor data into a collection of MS2 spectra. The search results are then used to generate a spectral library which is then employed for the targeted analysis of the DIA data searched against a Swissprot human or mouse database (January 2021)."}, "[2]": {"target": "T1, DDB1•CRBN (Homo sapiens, UniProt Q96SW2)", "T1 construct": "made in house", "assay": "Competitive fluorescence anisotropy (polarization) vs thalidomide-Cy5", "type": "binding", "settings": "competition with thalidomide–Cy5; KD estimated from Ki", "method": "Competitive fluorescence polarization experiments were performed according to previously reported methods ([65]). All experiments were performed in 25 mM HEPES, […], 1 mM TCEP, pH 7.4. A pre-complexed sample was prepared by incubating DDB1-CRBN (400 nM) with thalidomide–Cy5 conjugate (fig. S2A) (80 nM) at RT for 30 minutes with gentle shaking (220 rpm). […] Polarization values were measured on an Infinite M1000 Pro microplate reader (Tecan) following 1 hour of incubation at RT with gentle shaking. A total of three independent measurements were acquired and averaged per biological sample to generate the values shown in figure S2C. All mP values were normalized between 0 and 100 using the formula NormalizedmP=[(x−minimum)/[…]]∗100 , where ‘‘x’’ is the mP value of the sample and ‘‘minimum’’ and ‘‘maximum’’ are the minimum and maximum mP values, respectively, across all samples. KD values were estimated from computed Ki-values as previously described ([65])."}, "[3]": {"target": "CRBN (Homo sapiens, UniProt Q96SW2)", "assay": "In-cell CRBN engagement NanoBRET", "settings": "for EC50: EC50 CRBN engagement"}},
  "note": "“Also recorded” adds a separate entry of the source.",
  "data": [
    {"smiles": "Nc1cccc2c1C(=O)N(C1CCC(=O)NC1=O)C2=O", "note": "(centres unmarked) [pomalidomide, reference compound]", "values": [
      {"measurement": "changes to protein expression (in words)", "setting": "[1]", "result": "do not degrade proteins"},
      {"measurement": "logFC Bola1 (Q9D8S9)", "setting": "[1]; vs DMSO, 5 hr, Ba/F3", "result": "-2.16E-01"},
      {"measurement": "logFC Dusp19 (Q8K4T5)", "setting": "[1]; vs DMSO, 5 hr, Ba/F3", "result": "-7.00E-01"},
      {"measurement": "logFC Inpp5k (Q8C5L6)", "setting": "[1]; vs DMSO, 5 hr, Ba/F3", "result": "-9.47E-01"},
      {"measurement": "logFC Llph (Q9D945)", "setting": "[1]; vs DMSO, 5 hr, Ba/F3", "result": "2.10E-01"},
      {"measurement": "logFC Med8 (Q9D7W5)", "setting": "[1]; vs DMSO, 5 hr, Ba/F3", "result": "-3.40E-01"}
    ]},
    {"smiles": "O=C1CCC(N2C(=O)c3ccc(N4CCOCC4)cc3C2=O)C(=O)N1", "note": "(centres unmarked) [PT-179]", "values": [
      {"measurement": "Kd", "setting": "[2]", "result": 587, "unit": "nM"},
      {"measurement": "changes to protein expression (in words)", "setting": "[1]", "result": "do not degrade proteins; also recorded: no significant changes to protein expression"},
      {"measurement": "logFC Bak1 (O08734)", "setting": "[1]; vs DMSO, 5 hr, Ba/F3", "result": "-1.95E-01"},
      {"measurement": "logFC Hspa1l (P16627)", "setting": "[1]; vs DMSO, 5 hr, Ba/F3", "result": "3.76E-01"},
      {"measurement": "logFC Polr2l (P62876)", "setting": "[1]; vs DMSO, 5 hr, Ba/F3", "result": "5.32E-01"},
      {"measurement": "logFC Prkd1 (Q62101)", "setting": "[1]; vs DMSO, 5 hr, Ba/F3", "result": "5.39E-01"},
      {"measurement": "logFC Rpa2 (Q62193)", "setting": "[1]; vs DMSO, 5 hr, Ba/F3", "result": "1.32E-01"},
      {"measurement": "logFC Pigo (Q9JJI6)", "setting": "[1]; vs DMSO, 24 hr, Ba/F3", "result": "-3.94E-01"},
      {"measurement": "logFC Ppib (P24369)", "setting": "[1]; vs DMSO, 24 hr, Ba/F3", "result": "9.71E-02"},
      {"measurement": "logFC Prpf38a (Q4FK66)", "setting": "[1]; vs DMSO, 24 hr, Ba/F3", "result": "-1.96E-01"},
      {"measurement": "logFC Ube2v1 (Q9CZY3)", "setting": "[1]; vs DMSO, 24 hr, Ba/F3", "result": "5.05E-01"},
      {"measurement": "logFC Uchl4 (P58321)", "setting": "[1]; vs DMSO, 24 hr, Ba/F3", "result": "1.38E-01"},
      {"measurement": "EC50", "setting": "[3]; HEK293T cells", "result": 2880, "unit": "nM"},
      {"measurement": "EC50", "setting": "[3]; HEK293T cells, No SD40 (fig. S16 protocol)", "result": 641, "unit": "nM"},
      {"measurement": "EC50", "setting": "[3]; HEK293T cells, SD40–PRKRA low expression (single-copy lentiviral integration)", "result": 350, "unit": "nM"},
      {"measurement": "EC50", "setting": "[3]; HEK293T cells, SD40–PRKRA overexpression (plasmid transfection)", "result": 169, "unit": "nM"},
      {"measurement": "EC50", "setting": "[3]; U2OS cells", "result": 979, "unit": "nM"},
      {"measurement": "lower apparent potency than pomalidomide", "setting": "[3]; HEK293T and U2OS cells", "result": 7, "unit": "fold"},
      {"measurement": "increase in apparent affinity for CRBN", "setting": "[3]; HEK293T cells overexpressing SD40–PRKRA", "result": 3.8, "unit": "fold"},
      {"measurement": "increase in apparent affinity for CRBN", "setting": "[3]; HEK293T cells stably expressing SD40–PRKRA", "result": 1.8, "unit": "fold"}
    ]}
  ]
}
